Data reported in US20260250318A1, “COMPOSITIONS AND METHODS FOR CROSSING THE BLOOD BRAIN BARRIER” (VOYAGER THERAPEUTICS, INC., priority 2022, published 2026).

The sequences below were run on brain (assay: Maturation of TTM-001 capsid, NGS enrichment in brain of CD-1 Outbred mice). Settings: NGS fold-enrichment of TTM-001 matured AAV capsid variants in the brain of CD-1 Outbred mice; intravenous 1.0×10^12 VG/dose; 14 days in life; RNA; relative to non-matured TTM-001 control.
Format: in vivo
Method in brief: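 Brain enrichment read by NGS after RNA extraction and RT-PCR, expressed as fold ratio over the matching parental capsid (TTM-001 or TTM-002). Libraries, mutated around loop IV positions 449/450–466, were injected intravenously (tail vein, 1.0×10^12 VG/dose) into three female CD-1 mice; brains harvested at 14 days.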

Which “Fold enrichment over TTM-001” value does the source give for “KTINGSRSPHRPAQNQQT (peptide inserted in AAV capsid)” here?
The value was 2.061 fold.

KTINGSGSPHSKIRPQQT was tested. Which “Fold enrichment over TTM-001” value did it give?
Its value is 2.080 fold.

For KTINGSGSPHSKAQTFRT, which “Fold enrichment over TTM-001” value is on record?
The value was 2.847 fold.

For KTINGSGSPHSKARMGQT, which “Fold enrichment over TTM-001” value is on record?
Its value is 2.564 fold.

For KTINGSGSPHSKAQFLRT, which “Fold enrichment over TTM-001” value is on record?
The value was 2.156 fold.

KTINGSGSPHSKRLYQQT was tested. Which “Fold enrichment over TTM-001” value did it give?
The value was 2.721 fold.

Which “Fold enrichment over TTM-001” value does the source give for KTINGSGSPHSKAQSHRT here?
Its value is 2.084 fold.

KTINGHLSPHRKAQNQQT was tested. Which “Fold enrichment over TTM-001” value did it give?
The value was 2.851 fold.

For KTINGSGSPHSRRQNQQT, which “Fold enrichment over TTM-001” value is on record?
The value was 2.166 fold.

Which “Fold enrichment over TTM-001” value does the source give for KTINGSGSPHSKAHRQQT here?
The value was 2.117 fold.

How did the “Fold enrichment over TTM-001” value turn out when KTINGSGSPHSKAQMVRT was run?
The value was 2.426 fold.

Which “Fold enrichment over TTM-001” value does the source give for KTINASGSPHSKAQGQQT here?
Its value is 2.108 fold.

How did the “Fold enrichment over TTM-001” value turn out when KTINGVASPHRKAQNQQT was run?
Its value is 2.261 fold.

KGLSGSGSPHSKAQNQQT was tested. Which “Fold enrichment over TTM-001” value did it give?
Its value is 4.056 fold.

For KTINGYRSPHSKAQNQQT, which “Fold enrichment over TTM-001” value is on record?
The value was 2.140 fold.

KTINGSGSPHSKLFRQQT was tested. Which “Fold enrichment over TTM-001” value did it give?
The value was 3.806 fold.

How did the “Fold enrichment over TTM-001” value turn out when KTINGSGSPHLVFQNQQT was run?
Its value is 2.376 fold.

For “KTINGSRSPHRSAQNQQT (peptide inserted in AAV capsid)”, which “Fold enrichment over TTM-001” value is on record?
Its value is 2.536 fold.

KTINGSGSPHSLFANQQT was tested. Which “Fold enrichment over TTM-001” value did it give?
The value was 2.365 fold.

With KTINGSGSPHCSAQNQQT as the sequence, how does the “Fold enrichment over TTM-001” value read?
Its value is 2.339 fold.

KTINGSGSPHSKARPFQT was tested. Which “Fold enrichment over TTM-001” value did it give?
The value was 2.443 fold.

For KDSLGSGSPHSKAQNQQT, which “Fold enrichment over TTM-001” value is on record?
Its value is 2.175 fold.

For KSMNGSGSPHSRAQNQQT, which “Fold enrichment over TTM-001” value is on record?
Its value is 5.145 fold.

How did the “Fold enrichment over TTM-001” value turn out when KTINGSGSPHSSKRNQQT was run?
The value was 2.978 fold.

With KTINGSGSPHMYAQNQQT as the sequence, how does the “Fold enrichment over TTM-001” value read?
Its value is 2.060 fold.

KTINGSGSPHSKAQPSKT was tested. Which “Fold enrichment over TTM-001” value did it give?
The value was 2.339 fold.

For KTINGSGSPHSKAQKRST, which “Fold enrichment over TTM-001” value is on record?
The value was 2.151 fold.

Which “Fold enrichment over TTM-001” value does the source give for “KTINGSRSPHIRAQNQQT (peptide inserted in AAV capsid)” here?
Its value is 2.356 fold.

How did the “Fold enrichment over TTM-001” value turn out when KTINTIESPHSKAQNQQT was run?
Its value is 2.331 fold.

KTINGSGSPHLYMQNQQT was tested. Which “Fold enrichment over TTM-001” value did it give?
Its value is 2.615 fold.

For KTINGSGSPHSKARYVQT, which “Fold enrichment over TTM-001” value is on record?
Its value is 2.749 fold.

With “KYLLGSGSPHSKAQNQQT (peptide inserted in AAV capsid)” as the sequence, how does the “Fold enrichment over TTM-001” value read?
Its value is 2.253 fold.

With KTINLIRSPHSKAQNQQT as the sequence, how does the “Fold enrichment over TTM-001” value read?
Its value is 2.920 fold.

Which “Fold enrichment over TTM-001” value does the source give for KTINGSGSPHSKAQRKLT here?
Its value is 4.339 fold.

KTINGVVSPHRKAQNQQT was tested. Which “Fold enrichment over TTM-001” value did it give?
The value was 3.106 fold.

With KTINGSGSPHSCSQNQQT as the sequence, how does the “Fold enrichment over TTM-001” value read?
The value was 3.428 fold.

How did the “Fold enrichment over TTM-001” value turn out when KTINGSGSPHSKLRSQQT was run?
The value was 2.309 fold.

For KTINGRTSPHAKAQNQQT, which “Fold enrichment over TTM-001” value is on record?
The value was 2.060 fold.

KTINGSGSPHIYLQNQQT was tested. Which “Fold enrichment over TTM-001” value did it give?
The value was 2.542 fold.

How did the “Fold enrichment over TTM-001” value turn out when KTINGSGSPHSKVKPQQT was run?
The value was 2.778 fold.

KTINGSGSPHSSRKNQQT was tested. Which “Fold enrichment over TTM-001” value did it give?
Its value is 2.585 fold.

For KTINGMRSPHGKAQNQQT, which “Fold enrichment over TTM-001” value is on record?
The value was 2.527 fold.

For KTINGSGSPHSKVGRQQT, which “Fold enrichment over TTM-001” value is on record?
The value was 3.255 fold.

With KTINGSGSPHSKLWTQQT as the sequence, how does the “Fold enrichment over TTM-001” value read?
Its value is 2.140 fold.

How did the “Fold enrichment over TTM-001” value turn out when “KTINGSRSPHSWAQNQQT (peptide inserted in AAV capsid)” was run?
Its value is 2.559 fold.

Which “Fold enrichment over TTM-001” value does the source give for KTINGSGSPHSKAQWLRT here?
Its value is 2.795 fold.

For KTINGIASPHRKAQNQQT, which “Fold enrichment over TTM-001” value is on record?
Its value is 2.099 fold.

Which “Fold enrichment over TTM-001” value does the source give for KTINGSGSPHSLVFNQQT here?
Its value is 2.019 fold.

For KTINGSGSPHWSLQNQQT, which “Fold enrichment over TTM-001” value is on record?
The value was 2.389 fold.

Which “Fold enrichment over TTM-001” value does the source give for KTINGSGSPHSLRHNQQT here?
The value was 2.980 fold.

How did the “Fold enrichment over TTM-001” value turn out when “KTINGSVSPHYLAQNQQT (peptide inserted in AAV capsid)” was run?
The value was 2.203 fold.

KTINGSGSPHSKAFTRQT was tested. Which “Fold enrichment over TTM-001” value did it give?
Its value is 2.518 fold.

How did the “Fold enrichment over TTM-001” value turn out when KTINGSGSPHSKLLRQQT was run?
The value was 2.981 fold.

With KTINGMLSPHRKAQNQQT as the sequence, how does the “Fold enrichment over TTM-001” value read?
Its value is 2.646 fold.

How did the “Fold enrichment over TTM-001” value turn out when KTINGSLSPHRRAQNQQT was run?
The value was 2.717 fold.

For KTINGSGSPHSRRLNQQT, which “Fold enrichment over TTM-001” value is on record?
The value was 3.251 fold.

For KTINGVLSPHRKAQNQQT, which “Fold enrichment over TTM-001” value is on record?
Its value is 2.868 fold.

KTINGSGSPHSLFLNQQT was tested. Which “Fold enrichment over TTM-001” value did it give?
The value was 3.358 fold.

For KTINGSGSPHSWLSNQQT, which “Fold enrichment over TTM-001” value is on record?
Its value is 3.495 fold.

With KTINGSGSPHSKARIVQT as the sequence, how does the “Fold enrichment over TTM-001” value read?
The value was 3.287 fold.

Which “Fold enrichment over TTM-001” value does the source give for KTINSRFSPHSKAQNQQT here?
The value was 2.032 fold.

How did the “Fold enrichment over TTM-001” value turn out when KTINGSGSPHSKRTLQQT was run?
Its value is 2.583 fold.

How did the “Fold enrichment over TTM-001” value turn out when KTINGSGSPHSKRVSQQT was run?
Its value is 2.196 fold.

Which “Fold enrichment over TTM-001” value does the source give for KTINGSGSPHSKQRSQQT here?
Its value is 2.395 fold.

For KTINGSGSPHSKVRVQQT, which “Fold enrichment over TTM-001” value is on record?
Its value is 2.034 fold.

How did the “Fold enrichment over TTM-001” value turn out when KTINGSGSPHSLLWNQQT was run?
The value was 7.983 fold.

How did the “Fold enrichment over TTM-001” value turn out when KTINGSGSPHSKLSWQQT was run?
Its value is 2.322 fold.

For KTINGALSPHRKAQNQQT, which “Fold enrichment over TTM-001” value is on record?
The value was 2.203 fold.

KTINGSGSPHCLSQNQQT was tested. Which “Fold enrichment over TTM-001” value did it give?
Its value is 2.114 fold.

With KTINGSGSPHSKAQNWRT as the sequence, how does the “Fold enrichment over TTM-001” value read?
The value was 2.125 fold.

How did the “Fold enrichment over TTM-001” value turn out when KTINGSGSPHSKARTRQT was run?
The value was 2.737 fold.

Which “Fold enrichment over TTM-001” value does the source give for KTINGSGSPHSKPARQQT here?
The value was 2.538 fold.

With KTINGSGSPHSKLRMQQT as the sequence, how does the “Fold enrichment over TTM-001” value read?
Its value is 2.106 fold.

How did the “Fold enrichment over TTM-001” value turn out when KTINLRFSPHSKAQNQQT was run?
The value was 2.611 fold.

For KTINGSGSPHCSLQNQQT, which “Fold enrichment over TTM-001” value is on record?
The value was 4.540 fold.

Which “Fold enrichment over TTM-001” value does the source give for KTINGSGSPHSKARGIQT here?
The value was 2.140 fold.

For KTINGSGSPHYLLQNQQT, which “Fold enrichment over TTM-001” value is on record?
The value was 2.011 fold.

Which “Fold enrichment over TTM-001” value does the source give for KTINGSGSPHSKAQTNRT here?
Its value is 2.510 fold.

For KTINGSGSPHSKAARTQT, which “Fold enrichment over TTM-001” value is on record?
The value was 2.266 fold.

Which “Fold enrichment over TTM-001” value does the source give for KQPLGSGSPHSKAQNQQT here?
Its value is 2.024 fold.

With KTINGKTSPHGKAQNQQT as the sequence, how does the “Fold enrichment over TTM-001” value read?
Its value is 2.717 fold.

How did the “Fold enrichment over TTM-001” value turn out when KTINGSGSPHRFKQNQQT was run?
Its value is 2.223 fold.

With KTINGSGSPHLWTQNQQT as the sequence, how does the “Fold enrichment over TTM-001” value read?
The value was 3.034 fold.

How did the “Fold enrichment over TTM-001” value turn out when KTINGSGSPHSKLIRQQT was run?
The value was 3.968 fold.

KTINGSGSPHSKAGCGQT was tested. Which “Fold enrichment over TTM-001” value did it give?
Its value is 5.341 fold.
